What was measured:
B16 [1] = assay: Inhibition of melanogenesis in mouse B16 cells at 10 uM; format: functional
B16 [2] = assay: Inhibition of melanogenesis in mouse B16 cells; format: functional, cell-based

SMILES	inhibition at 10 µM (B16 [1])	IC50 (B16 [2])
COc1ccc(/C=N/NC(N)=S)cc1	42%	15.1 µM
CCc1ccccc1/C=N/NC(N)=S	> 100%	2.7 µM
NC(=S)N/N=C/C1CCCCC1	81%	3.4 µM
Cc1ccccc1/C=N/NC(N)=S	> 100%	3.4 µM
NC(=S)N/N=C/c1ccccc1Cl	> 100%	1.4 µM
NC(=S)N/N=C\c1cccc2ccccc12	> 100%	1.1 µM
COc1cccc(/C=N/NC(N)=S)c1	40%	15.4 µM
NC(=S)N/N=C/c1cccc(Cl)c1	> 100%	2.4 µM
Cc1cccc(/C=N/NC(N)=S)c1	> 100%	2.8 µM
NC(=S)N/N=C/c1ccccc1O	24%	21 µM
N/C(S)=N/N=C/c1ccccn1	15%	> 30 µM
CCc1ccc(/C=N/NC(N)=S)cc1	> 100%	–
Cc1ccc(/C=N/NC(N)=S)cc1	64%	–
NC(=S)N/N=C/c1ccccc1 [PHENYLTHIOSEMICARBAZONE]	< 10%	> 10 µM
NC(=S)N/N=C/c1ccc(Cl)cc1	92%	4.2 µM

Reference: ChEMBL document CHEMBL1268889, “Structural characteristics of thiosemicarbazones as inhibitors of melanogenesis” (Bioorg Med Chem Lett, 2010)
